Reference: patent publication US12305197B2, “Proliferation method” (Kao Corporation, priority 2019, dated 2025)

Legend:
[1] = tested on: H3N2 influenza virus strain (A/Memphis/l/1971); assay type: cell-based
[2] = tested on: H1N1pdm influenza virus strain (A/Shizuoka/830/2009); assay type: cell-based
[3] = tested on: H1N1 (laboratory strain) influenza virus strain; assay type: cell-based, influenza A virus
[4] = tested on: influenza B virus strain (B/Lee/1940); assay type: cell-based
[5] = tested on: H3N2 influenza virus strain (A/Memphis/l/1971); assay type: cell-based; remark: listed apart in the source
[6] = tested on: H1N1pdm influenza virus strain (A/Shizuoka/830/2009); assay type: cell-based; remark: listed apart in the source
[7] = tested on: H1N1 (laboratory strain) influenza virus strain; assay type: cell-based, influenza A virus; remark: listed apart in the source
[8] = tested on: influenza B virus strain (B/Lee/1940); assay type: cell-based; remark: listed apart in the source
[9] = tested on: H1N1 influenza virus strain (A/Puerto Rico/8/1934); settings: in vivo

Substance	HA titer of influenza virus, low Bax inhibitor concentration [1]	HA titer of influenza virus, low Bax inhibitor concentration [2]	HA titer of influenza virus, low Bax inhibitor concentration [3]	HA titer of influenza B virus [4]	amount of influenza virus (virus proliferation capacity) by focus assay, low concentration [5]	amount of influenza virus (virus proliferation capacity) by focus assay, low concentration [6]	amount of influenza virus (virus proliferation capacity) by focus assay, low concentration [7]	amount of influenza B virus (virus proliferation capacity) by plaque assay [8]	HA titer of influenza virus [1]	HA titer of influenza virus, time-dependent [1]	HA titer of influenza virus [2]	HA titer of influenza virus, time-dependent [2]	amount of influenza virus (virus proliferation capacity) by focus assay [5]	amount of influenza virus (virus proliferation capacity) by focus assay [6]	increase of viral titer versus control group [9] [times]	viral titer compared with 10-fold control group (5×10^3 EID50/chicken egg) [9]
Pro-Met-Leu-Lys-Glu (PMLKE) [SEQ ID NO: 2]	increase in the HA titer of the influenza virus was also observed	increase in the HA titer of the influenza virus was also observed	increase in the HA titer of the influenza virus was also observed	increases	enhances the virus proliferation capacity	enhances the virus proliferation capacity	enhances the virus proliferation capacity	exhibit the effect of enhancing the virus proliferation capacity	–	–	–	–	–	–	–	–
Val-Pro-Met-Leu-Lys (VPMLK) [SEQ ID NO: 1]	increases	increases	increases	increases	–	–	–	exhibit the effect of enhancing the virus proliferation capacity	increases	increases the HA titer of the influenza virus strains in the early stages of the culture	increases	increases the HA titer of the influenza virus strains in the early stages of the culture	exhibits the effect of enhancing the virus proliferation capacity	exhibits the effect of enhancing the virus proliferation capacity	–	–
Val-Ser-Ala-Leu-Lys (VSALK) [SEQ ID NO: 7]	–	–	–	–	–	–	–	–	–	–	–	–	–	–	1.27	higher
